Assay results from patent publication US12186319B2, “Crosslinked polymer nanoparticles for targeted cellular uptake and therapeutics, and compositions and methods thereof” (University of Massachusetts, priority 2017, dated 2025).

Assay: Encapsulation of drug within HA-decorated nanoparticles (FIG. 1, visual)
Format: physicochemical
Conditions: FIG. 1B/1C, colour of solution
Experimental: The dye is however stably encapsulated in crosslinked HA-decorated nanoparticles (right).
MTX and MMTX encapsulation: A suspension of modified HA (1 mg/mL), crosslinker (2 mg/mL) and Irgacure 2959 (0.5 mg/mL) in water (1 mL) was stirred at RT for 30 mins and purged with argon for 10 mins. To this solution, MTX (100 μL, 6 mg/mL) or MMTX (100 μL, 6 mg/mL) or DMSO 100 μL (control) was added. The reaction mixture was exposed to UV irradiation for 10 min. Afterwards, the free drug was removed by dialyzing the solution against DI water for 48 h and filtered through a hydrophilic membrane (pore size: 0.45 μm). The resulting solution was used to estimate the size of the drug loaded PNPs using dynamic light scattering.

- encapsulation within HA-decorated nanoparticles: no encapsulation is discernible
Structure (SMILES): CN(Cc1cnc2nc(N)nc(N)c2n1)c1ccc(C(=O)N[C@@H](CCC(=O)O)C(=O)O)cc1 [MTX, Methotrexate]
